Key:
Experiment in all cases: relative viability (nuclei count vs DMSO), 5 days (fraction); higher = more cells survive
Selisistat + Olaparib = compound: C1CC(C2=C(C1)C3=C(N2)C=CC(=C3)Cl)C(=O)N [Selisistat] + O=C(c1cc(Cc2n[nH]c(=O)c3ccccc23)ccc1F)N1CCN(C(=O)C2CC2)CC1 [Olaparib] (partner 8 µM)
Outline: (§1)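 Values are medians from duplicate plates. Each reflects relative viability, defined as the nuclei count of treated wells over that of vehicle wells. Lung cancer cell lines in 1536-well plates were pin-tool dosed one day after seeding with one drug alone or with a fixed anchor-drug dose plus five library-drug doses (not always all listed) in √10 steps, then fixed, stained and imaged at 4× after 5 days.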

Selisistat + Pemetrexed = compound: C1CC(C2=C(C1)C3=C(N2)C=CC(=C3)Cl)C(=O)N [Selisistat] + Nc1nc2[nH]cc(CCc3ccc(C(=O)N[C@@H](CCC(=O)O)C(=O)O)cc3)c2c(=O)[nH]1 [Pemetrexed] (partner 0.2 µM)
Outline: as §1

Serdemetan + Vorinostat = compound: c1ccc2c(CCNc3ccc(Nc4ccncc4)cc3)c[nH]c2c1 [Serdemetan] + O=C(CCCCCCC(=O)Nc1ccccc1)NO [Vorinostat] (partner 1 µM)
Outline: as §1

Serdemetan + Pictilisib = compound: c1ccc2c(CCNc3ccc(Nc4ccncc4)cc3)c[nH]c2c1 [Serdemetan] + CS(=O)(=O)N1CCN(Cc2cc3nc(-c4cccc5[nH]ncc45)nc(N4CCOCC4)c3s2)CC1 [Pictilisib] (partner 1 µM)
Outline: as §1

Cell Line | relative viability (Selisistat + Olaparib; first compound 0.4 µM) | relative viability (Selisistat + Olaparib; first compound 1.265 µM) | relative viability (Selisistat + Olaparib; first compound 4 µM) | relative viability (Selisistat + Olaparib; first compound 12.65 µM) | relative viability (Selisistat + Olaparib; first compound 40 µM) | relative viability (Selisistat + Pemetrexed; first compound 0.4 µM) | relative viability (Selisistat + Pemetrexed; first compound 1.265 µM) | relative viability (Selisistat + Pemetrexed; first compound 4 µM) | relative viability (Selisistat + Pemetrexed; first compound 12.65 µM) | relative viability (Selisistat + Pemetrexed; first compound 40 µM) | relative viability (Serdemetan + Vorinostat; first compound 0.04 µM) | relative viability (Serdemetan + Vorinostat; first compound 0.1265 µM) | relative viability (Serdemetan + Vorinostat; first compound 0.4 µM) | relative viability (Serdemetan + Vorinostat; first compound 1.265 µM) | relative viability (Serdemetan + Vorinostat; first compound 4 µM) | relative viability (Serdemetan + Pictilisib; first compound 0.04 µM) | relative viability (Serdemetan + Pictilisib; first compound 0.1265 µM) | relative viability (Serdemetan + Pictilisib; first compound 0.4 µM) | relative viability (Serdemetan + Pictilisib; first compound 1.265 µM) | relative viability (Serdemetan + Pictilisib; first compound 4 µM)
HCC-366 | 0.306 | 0.344 | 0.359 | 0.364 | 0.387 | 0.136 | 0.184 | 0.193 | 0.146 | 0.164 | 0.351 | 0.166 | 0.191 | 0.047 | 0.0752 | 0.204 | 0.151 | 0.0985 | 0.141 | 0.168
HCC-827 | 0.678 | 0.741 | 0.672 | 0.647 | 0.627 | 0.258 | 0.266 | 0.266 | 0.256 | 0.251 | 0.827 | 0.466 |  | 0.597 | 0.449 | 0.921 | 0.712 |  | 0.575 | 0.824
HOP-62 | 0.394 | 0.422 | 0.419 | 0.432 | 0.73 | 0.327 | 0.284 | 0.448 | 0.284 | 0.488 | 0.702 | 0.713 | 0.881 | 0.36 | 0.406 | 0.821 | 0.798 | 0.782 | 0.604 | 0.657
IA-LM | 0.899 | 0.897 | 0.849 | 0.802 | 0.806 |  |  |  |  |  | 1.05 | 0.964 | 0.9 | 0.81 | 0.419 | 0.4 | 0.499 | 0.325 | 0.314 | 0.389
LC-2-ad | 0.801 | 0.69 | 0.717 | 0.633 | 0.71 | 0.263 | 0.268 | 0.268 | 0.285 | 0.261 | 0.71 | 0.683 | 0.673 | 0.646 | 0.638 | 0.42 | 0.445 | 0.431 |  | 0.417

Reference: the supplement of paper PMC10307832
